Laboratory results from ChEMBL document CHEMBL1133324, “Suitably functionalised pyrimidines as potential antimycotic agents” (2000).
≈ marks a conversion by molar mass, not a printed value.

Legend:
[1] = system: Aspergillus fumigatus; test: In vitro antifungal activity against human pathogenic fungi, Aspergillus fumigatus; assay type: functional
[2] = system: Cryptococcus neoformans; test: In vitro antifungal activity against human pathogenic fungi, Cryptococcus neoformans; assay type: functional
[3] = system: Trichophyton benhamiae; test: In vitro antifungal activity against human pathogenic fungi, Trichophyton mentagrophytes; assay type: functional, Arthroderma benhamiae
[4] = system: Sporothrix schenckii; test: In vitro antifungal activity against human pathogenic fungi, Sporothrix schenck ii; assay type: functional
[5] = system: Candida albicans; test: In vitro antifungal activity against human pathogenic fungi, Candida albicans; assay type: functional

MIC [1] [µg/mL] | MIC [2] [µg/mL] | MIC [3] [µg/mL] | MIC [4] [µg/mL] | MIC [5] [µg/mL] | Structure (SMILES)
0.09 (≈ 0.304 µM) | 1.56 (≈ 5.27 µM) | 0.39 (≈ 1.32 µM) | > 100 | > 100 | CSc1nc(Cl)c(C#N)c(-c2cccc(Cl)c2)n1
> 100 | > 100 | > 100 | > 100 | > 100 | CSc1nc(Nc2ccc(Cl)cc2)c(C#N)c(-c2ccc(F)cc2)n1
0.09 (≈ 0.322 µM) | 50 (≈ 179 µM) | 0.09 (≈ 0.322 µM) | > 100 | > 100 | CSc1nc(Cl)c(C#N)c(-c2cccc(F)c2)n1
50 (≈ 171 µM) | > 100 | 50 (≈ 171 µM) | > 100 | > 100 | COc1ccc(-c2nc(SC)nc(Cl)c2C#N)cc1
0.04 (≈ 0.143 µM) | 50 (≈ 179 µM) | 0.09 (≈ 0.322 µM) | > 100 | > 100 | CSc1nc(Cl)c(C#N)c(-c2ccc(F)cc2)n1
0.04 (≈ 0.135 µM) | > 100 | 0.19 (≈ 0.641 µM) | > 100 | > 100 | CSc1nc(Cl)c(C#N)c(-c2ccc(Cl)cc2)n1

Second part, the compound before the results:

Structure (SMILES) | MIC [1] [µg/mL] | MIC [2] [µg/mL] | MIC [3] [µg/mL] | MIC [4] [µg/mL] | MIC [5] [µg/mL]
CSc1nc(-c2ccccc2)nc(Cl)c1C#N | 0.02 (≈ 0.0764 µM) | > 100 | 12.5 (≈ 47.8 µM) | > 100 | > 100
COc1ccc(-c2nc(SC)nc(Nc3ccc(Cl)cc3)c2C#N)cc1 | > 100 | > 100 | > 100 | > 100 | > 100
CSc1nc(S)c(C#N)c(-c2cccc(F)c2)n1 | > 100 | > 100 | > 100 | > 100 | > 100
CCc1nc(Cl)c(C#N)c(SC)n1 | 6.25 (≈ 29.2 µM) | 1.56 (≈ 7.3 µM) | 1.56 (≈ 7.3 µM) | 12.5 (≈ 58.5 µM) | 25 (≈ 117 µM)
CSc1nc(Cl)c(C#N)c(SC)n1 | 0.002 (≈ 0.00863 µM) | 1.56 (≈ 6.73 µM) | 0.005 (≈ 0.0216 µM) | 50 (≈ 216 µM) | > 100
CSc1nc(SCc2ccccc2)nc(Cl)c1C#N | 0.78 (≈ 2.53 µM) | 6.25 (≈ 20.3 µM) | 0.19 (≈ 0.617 µM) | 50 (≈ 162 µM) | 50 (≈ 162 µM)
CSc1nc(Nc2ccc(Cl)cc2)c(C#N)c(-c2cccc(F)c2)n1 | > 100 | > 100 | > 100 | > 100 | > 100
CSc1ncnc(Cl)c1C#N | 0.39 (≈ 2.1 µM) | 1.56 (≈ 8.4 µM) | 0.39 (≈ 2.1 µM) | 6.25 (≈ 33.7 µM) | 25 (≈ 135 µM)
CCSc1nc(Cl)c(C#N)c(-c2cccc(F)c2)n1 | 1.56 (≈ 5.31 µM) | 3.12 (≈ 10.6 µM) | 0.39 (≈ 1.33 µM) | 50 (≈ 170 µM) | > 100
C[C@@H]1[C@H](O)[C@@H](C)/C=C/C=C/C=C/C=C/C=C/C=C/C=C/[C@H](O[C@@H]2O[C@H](C)[C@@H](O)[C@H](N)[C@@H]2O)C[C@@H]2O[C@](O)(C[C@@H](O)C[C@@H](O)[C@H](O)CC[C@@H](O)C[C@@H](O)CC(=O)O[C@H]1C)C[C@H](O)[C@H]2C(=O)O [AMPHOTERICIN B] | 0.002 (≈ 0.00216 µM) | – | 0.005 (≈ 0.00541 µM) | – | –
CC(=O)N1CCN(c2ccc(OC[C@H]3CO[C@](Cn4ccnc4)(c4ccc(Cl)cc4Cl)O3)cc2)CC1 [KETOCONAZOLE] | 0.7 (≈ 1.32 µM) | 0.1 (≈ 0.188 µM) | 0.1 (≈ 0.188 µM) | 25 (≈ 47 µM) | 0.3 (≈ 0.565 µM)
